Assay results as given in US20240383908A1, “SYNTHESIS AND APPLICATION OF PHOSPHATASE DEGRADER” (HINOVA PHARMACEUTICALS INC., priority 2021, published 2024).
Counter-ions that a name gives are not always drawn.

These compounds were tested against T1, SHP2 protein (Homo sapiens, UniProt Q06124) (assay: Degradation activity on SHP2 protein in MIA Paca-2 cells (Western blot, DC50)). Details: read-out: Degradation activity for differenct cell lines MIA Paca-2 (DC50).
T1 sequence (Q06124 1-593): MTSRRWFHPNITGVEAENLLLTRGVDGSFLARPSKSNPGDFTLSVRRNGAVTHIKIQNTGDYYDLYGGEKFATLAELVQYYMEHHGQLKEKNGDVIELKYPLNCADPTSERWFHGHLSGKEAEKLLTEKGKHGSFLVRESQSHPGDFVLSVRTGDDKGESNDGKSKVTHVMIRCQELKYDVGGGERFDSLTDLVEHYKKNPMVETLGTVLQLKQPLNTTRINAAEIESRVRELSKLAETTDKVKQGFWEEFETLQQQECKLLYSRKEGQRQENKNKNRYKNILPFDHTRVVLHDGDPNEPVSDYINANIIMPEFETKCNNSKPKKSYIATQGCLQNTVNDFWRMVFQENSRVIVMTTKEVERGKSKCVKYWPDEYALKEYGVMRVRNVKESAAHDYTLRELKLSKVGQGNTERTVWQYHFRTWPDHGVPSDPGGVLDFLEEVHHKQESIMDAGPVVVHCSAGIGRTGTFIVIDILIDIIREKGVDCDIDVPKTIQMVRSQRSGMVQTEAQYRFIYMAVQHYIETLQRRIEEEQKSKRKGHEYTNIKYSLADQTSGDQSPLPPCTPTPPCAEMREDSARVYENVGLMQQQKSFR
Assay type: cell-based
Set-up: endogenous in cells; host or cells: MIA Paca-2 cells
Description: (1) MV-411 cells were cultured in the cell culture medium, and then well-growing cells were selected and inoculated in a 12-well plate, with 1 mL/well and 1×10^6 cells/well. The plate was incubated overnight in a 5% CO2 cell incubator at 37° C.
(2) 10 mM storage solution of each drug was prepared using dimethylsulfoxide (DMSO). The stock solution was diluted gradually with DMSO before use, and then 1 μL of the compound solution was added to the cell culture well (to ensure that the DMSO concentration in the culture system was […]), so that the final drug concentration is 100 nM, 10 nM, 3 nM, 1 nM, 0.3 nM, and 0.1 nM. Two wells were set for each concentration. The plate was gently shaken and mixed. Additionally, negative control wells (containing an equal amount of DMSO) and positive control wells were included.
(3) After 24 hours of cultivation, the cells were lysed using RIPA cell lysate, and the proteins were extracted. The protein concentration was measured using a BCA assay kit. 5× concentrated protein buffer was loaded, heated at 100° C. for 5 min, and then the sample was stored at −20° C.
(4) For each well, 30 μg of protein was loaded to polyacrylamide gel for electrophoresis.
(5) The protein was transferred from polyacrylamide gel to PVDF membrane, and sealed at room temperature with 5% skimmed milk for 1 h, which was then incubated with the primary antibodies (Anti-SHP2 rabbit mAb and Anti-GAPDH rabbit mAb) at 4° C. overnight. The membrane was washed three times with TBST solution, 10 minutes for each time. After that, the membrane was incubated with the secondary antibodies (horseradish peroxidase labeled goat anti-rabbit IgG) at room temperature for 2 h, and then washed three times with TBST solution, 10 minutes for each time, followed by exposure.
(6) The images were analyzed with Image J grayscale, and the degradation ratio of protein bands in the test group was calculated, based on the negative control group (DMSO) (100%).
(7) Using the Dose-response-inhibition equation in the data processing software GraphPad Prism 8, the DC50 value was obtained (which represents the drug concentration corresponding to 50% degradation of the target protein).
Using similar methods and different cell lines, the degradation activity of the compound according to the present invention on SHP2 protein of different cell lines was tested under suitable culture conditions.

Compound | DC50
C[C@@H]1OCC2(CCN(c3cnc(Sc4cccc(NC(=O)CCN5CC=C(c6ccc(C(=O)N7CCN(c8ccc9c(c8)CN(C8CCC(=O)NC8=O)C9=O)CC7)nc6)C(C)(C)C5)c4)cn3)CC2)[C@@H]1N (some centres unmarked) [Compound 276] | > 1000 nM
CC1(N)CCN(c2cnc(Sc3cccc(NC(=O)c4ccc(N5CCC(N6CCN(c7ccc8c(c7)C(=O)N(C7CCC(=O)NC7=O)C8=O)CC6)CC5)c(F)c4)c3)cn2)CC1 (centres unmarked) [Compound 277] | > 1000 nM
CC1(N)CCN(c2cnc(Sc3cccc(NC(=O)c4ccc(N5CCC(N6CCN(c7ccc8c(c7)CN(C7CCC(=O)NC7=O)C8=O)CC6)CC5)c(F)c4)c3)cn2)CC1 (centres unmarked) [Compound 278] | > 1000 nM
C[C@@H]1OCC2(CCN(c3cnc(Sc4cccc(NC(=O)c5ccc(N6CCC(N7CCN(c8ccc9c(c8)C(=O)N(C8CCC(=O)NC8=O)C9=O)CC7)CC6)c(F)c5)c4)cn3)CC2)[C@@H]1N (some centres unmarked) [Compound 279] | > 1000 nM
C[C@@H]1OCC2(CCN(c3cnc(Sc4cccc(NC(=O)c5ccc(N6CCC(N7CCN(c8ccc9c(c8)CN(C8CCC(=O)NC8=O)C9=O)CC7)CC6)c(F)c5)c4)cn3)CC2)[C@@H]1N (some centres unmarked) [Compound 280] | > 1000 nM
CC1(N)CCN(c2cnc(Sc3cccc(NC(=O)[C@H]4C[C@@H]4c4ccc(N5CCN(c6ccc(C(=O)NCc7ccc8c(c7)CN(C7CCC(=O)NC7=O)C8=O)nn6)CC5)c(F)c4)c3)cn2)CC1 (some centres unmarked) [Compound 281] | > 1000 nM
C[C@@H]1OCC2(CCN(c3cnc(Sc4cccc(NC(=O)[C@H]5C[C@@H]5c5ccc(N6CCN(c7ccc(C(=O)NCc8ccc9c(c8)CN(C8CCC(=O)NC8=O)C9=O)nn7)CC6)c(F)c5)c4)cn3)CC2)[C@@H]1N (some centres unmarked) [Compound 282] | > 1000 nM
CC1(N)CCN(c2cnc(Sc3cccc(NC(=O)[C@H]4C[C@@H]4c4ccc(N5CCN(c6ccc(C(=O)N7CCN(c8ccc9c(c8)CN(C8CCC(=O)NC8=O)C9=O)CC7)nn6)CC5)c(F)c4)c3)cn2)CC1 (some centres unmarked) [Compound 283] | > 1000 nM
C[C@@H]1OCC2(CCN(c3cnc(Sc4cccc(NC(=O)[C@H]5C[C@@H]5c5ccc(N6CCN(c7ccc(C(=O)N8CCN(c9ccc%10c(c9)CN(C9CCC(=O)NC9=O)C%10=O)CC8)nn7)CC6)c(F)c5)c4)cn3)CC2)[C@@H]1N (some centres unmarked) [Compound 284] | < 100 nM
C[C@@H]1OCC2(CCN(c3cnc(Sc4cccc(NC(=O)c5ccc(CN6CCN(c7ccc8c(c7)CN(C7CCC(=O)NC7=O)C8=O)CC6)cc5)c4)cn3)CC2)[C@@H]1N (some centres unmarked) [Compound 285] | > 1000 nM
CC1(N)CCN(c2cnc(Sc3cccc(NC(=O)c4ccc(CN5CCN(c6ccc7c(c6)CN(C6CCC(=O)NC6=O)C7=O)CC5)cc4)c3)cn2)CC1 (centres unmarked) [Compound 286] | > 1000 nM
C[C@@H]1OCC2(CCN(c3cnc(Sc4cccc(NC(=O)c5ccc(CN6CCN(c7ccc8c(c7)C(=O)N(C7CCC(=O)NC7=O)C8=O)CC6)cc5)c4)cn3)CC2)[C@@H]1N (some centres unmarked) [Compound 287] | > 1000 nM
CC1(N)CCN(c2cnc(Sc3cccc(NC(=O)c4ccc(CN5CCN(c6ccc7c(c6)C(=O)N(C6CCC(=O)NC6=O)C7=O)CC5)cc4)c3)cn2)CC1 (centres unmarked) [Compound 288] | > 1000 nM
C[C@@H]1OCC2(CCN(c3cnc(Sc4cccc(NC(=O)CCN5CCN(c6ccc(C(=O)NCc7ccc8c(c7)CN(C7CCC(=O)NC7=O)C8=O)nn6)CC5)c4)cn3)CC2)[C@@H]1N (some centres unmarked) [Compound 289] | > 1000 nM
CC1(N)CCN(c2cnc(Sc3cccc(NC(=O)C4CC45CCN(C4CCN(c6ccc(C(=O)NCc7ccc8c(c7)CN(C7CCC(=O)NC7=O)C8=O)nn6)CC4)CC5)c3)cn2)CC1 (centres unmarked) [Compound 290] | > 1000 nM
CC1(N)CCN(c2cnc(Sc3cccc(NCc4ccc(N5CCC(N6CCN(c7ccc8c(c7)C(=O)N(C7CCC(=O)NC7=O)C8)CC6)CC5)c(F)c4)c3)cn2)CC1 (centres unmarked) [Compound 291] | > 1000 nM

Compound | DC50
Cc1ncsc1-c1ccc([C@H](C)NC(=O)[C@@H]2C[C@@H](O)CN2C(=O)[C@@H](NC(=O)c2cnc(N3CCN(C4CC(C(=O)Nc5cccc(Sc6cnc(N7CCC8(CC7)CO[C@@H](C)[C@H]8N)cn6)c5)C4)CC3)nc2)C(C)(C)C)cc1 (stereo partly drawn) [Compound 294, 2-(4-(3-((3-((5-((3S,4S)-4-amino-3-methyl-2-oxa-8-azaspiro[4.5]decan-8-yl)pyrazin-2-yl)thio)phenyl)carbamoyl)cyclobutyl)piperazin-1-yl)-N—((S)-1-((2S,4R)-4-hydroxyl-2-(((S)-1-(4-(4-methylthiazol-5-yl)phenyl)ethyl)carbamoyl)pyrrolin-1-yl)-3,3-dimethyl-1-oxobutane-2-yl)pyrimidine-5-formamide hydrochloride] | < 100 nM
CC1(N)CCN(c2cnc(Sc3cccc(NC(=O)c4ccc(N5CCC(N6CC=C(c7ccc(C(=O)NCc8ccc9c(c8)CN(C8CCC(=O)NC8=O)C9=O)nc7)CC6)CC5)c(F)c4)c3)cn2)CC1 (centres unmarked) [Compound 295, hydrochloride] | < 100 nM
CC1(N)CCN(c2cnc(Sc3cccc(NC(=O)C4CC(N5CCC(N6CC=C(c7ccc(C(=O)NCc8ccc9c(c8)CN(C8CCC(=O)NC8=O)C9=O)nn7)CC6)CC5)C4)c3)cn2)CC1 (centres unmarked) [Compound 296] | < 100 nM
C[C@@H]1OCC2(CCN(c3cnc(Sc4cccc(NC(=O)c5cccc(CN6CCN(c7ccc8c(c7)CN(C7CCC(=O)NC7=O)C8=O)CC6)c5)c4)cn3)CC2)[C@@H]1N (some centres unmarked) [Compound 297] | > 1000 nM
CC1(N)CCN(c2cnc(Sc3cccc(NC(=O)c4cccc(CN5CCN(c6ccc7c(c6)CN(C6CCC(=O)NC6=O)C7=O)CC5)c4)c3)cn2)CC1 (centres unmarked) [Compound 298] | > 1000 nM
CC1(N)CCN(c2cnc(Sc3cccc(NC(=O)C4CC45CCN(c4ccc(C(=O)NCc6ccc7c(c6)CN(C6CCC(=O)NC6=O)C7=O)nn4)CC5)c3)cn2)CC1 (centres unmarked) [Compound 299] | > 1000 nM
CC1(N)CCN(c2cnc(Sc3cccc(NC(=O)C4CC(N5CC=C(c6ccc(C(=O)NCc7ccc8c(c7)C(=O)N(C7CCC(=O)NC7=O)C8)nc6)CC5)C4)c3)cn2)CC1 (centres unmarked) [Compound 302] | > 1000 nM
CC1(N)CCN(c2cnc(Sc3cccc(NC(=O)c4ccc(N5CCC(N6CC=C(c7ccc(C(=O)NCc8ccc9c(c8)CN(C8CCC(=O)NC8=O)C9=O)nc7)C(C)(C)C6)CC5)cc4)c3)cn2)CC1 (centres unmarked) [Compound 303] | < 100 nM
CC1(N)CCN(c2cnc(Sc3cccc(NC(=O)c4ccc(N5CCC(N6CC=C(c7ccc(C(=O)N8CCN(c9ccc%10c(c9)CN(C9CCC(=O)NC9=O)C%10=O)CC8)nc7)C(C)(C)C6)CC5)cc4)c3)cn2)CC1 (centres unmarked) [Compound 304] | < 100 nM
CC1(N)CCN(c2cnc(Sc3cccc(NC(=O)C4CCC(N5CC=C(c6ccc(C(=O)N7CCN(c8ccc9c(c8)CN(C8CCC(=O)NC8=O)C9=O)CC7)nc6)CC5)CC4)c3)cn2)CC1 (centres unmarked) [Compound 305] | > 1000 nM
CC1(N)CCN(c2cnc(Sc3cccc(NC(=O)c4ccc(N5CCC(C(=O)NCc6ccc7c(c6)CN(C6CCC(=O)NC6=O)C7=O)CC5)c(F)c4)c3)cn2)CC1 (centres unmarked) [Compound 306] | > 1000 nM
CC1(N)CCN(c2cnc(Sc3cccc(NC(=O)c4ccc(C5=CCC(N6CC=C(c7ccc(C(=O)NCc8ccc9c(c8)CN(C8CCC(=O)NC8=O)C9=O)nc7)CC6)CC5)cc4)c3)cn2)CC1 (centres unmarked) [Compound 307] | < 100 nM
CC1(N)CCN(c2cnc(Sc3cccc(NC(=O)c4ccc(C5=CCC(N6CC=C(c7ccc(C(=O)N8CCN(c9ccc%10c(c9)CN(C9CCC(=O)NC9=O)C%10=O)CC8)nc7)CC6)CC5)cc4)c3)cn2)CC1 (centres unmarked) [Compound 308] | < 100 nM
CC1(N)CCN(c2cnc(Sc3cccc(NC(=O)c4ccc(C5=CCC(N6CC=C(c7ccc(C(=O)NCc8ccc9c(c8)CN(C8CCC(=O)NC8=O)C9=O)nn7)CC6)CC5)cc4)c3)cn2)CC1 (centres unmarked) [Compound 309] | < 100 nM
CC1(N)CCN(c2cnc(Sc3cccc(NC(=O)C4CC(N5CCC(N6CC=C(c7ccc(C(=O)Nc8ccc9c(c8)CN(C8CCC(=O)NC8=O)C9=O)nn7)CC6)CC5)C4)c3)cn2)CC1 (centres unmarked) [Compound 310] | < 100 nM
CC1(N)CCN(c2cnc(Sc3cccc(NC(=O)C4CC5(C4)CC(N4CC=C(c6ccc(C(=O)NCc7ccc8c(c7)CN(C7CCC(=O)NC7=O)C8=O)nn6)CC4)C5)c3)cn2)CC1 (centres unmarked) [Compound 311] | > 1000 nM
